# Measurements as given in US6693105B1, “Hydroxyl-containing compounds” (Cell Therapeutics, Inc., priority 1992, dated 2004).
# Legend:
# [1] = tested on: PBMC (peripheral blood mononuclear cells); assay: two-way mixed lymphocyte reaction (MLR), proliferative response of PBMC to allogeneic stimulation; format: cell-based, human; settings: for IC50: Homo sapiens, PBMC, mixed lymphocyte reaction; for immune modulating activity compared with PTX: two-way MLR, FIG. 1
# Description: Various in vitro assays can be used to measure effects of the inventive compounds to module immune activity and have antitumor activity using a variety of cellular types. For example, a mixed lymphocyte reaction (MLR) provides a valuable screening tool to determine biological activity of each inventive compound. In the MLR, PBMCs (peripheral blood mononuclear cells) are obtained by drawing whole blood from healthy volunteers in a heparinized container and diluted with an equal volume of hanks balanced salt solution (HBSS). This mixture is layered on a sucrose density gradient, such as a Ficoll-Hypaque® gradient (specific gravity 1.08), and centrifuged at 1000×g for 25 minutes at room temperature or cooler. PBMC are obtained from a band at a plasma-Ficoll interface, separated and washed at least twice in a saline solution, such as HBSS. Contaminating red cells are lysed, such as by ACK lysis for 10 min at 37° C., and the PBMCs are washed twice in HBSS. The pellet of purified PBMCs is resuspended in complete medium, such as RPMI 1640 plus 20% human inactivated serum. Proliferative response of PBMC to allogeneic stimulation is determined in a two-way MLR performed in a 96-well microtiter plate. Briefly, approximately 10^5 test purified PBMC cells in […] complete medium are co-cultured with approximately 10^5 autologous (control culture) or allogeneic (stimulated culture) PBMC cells, wherein the allogeneic cells are from HLA disparate individuals. Varying doses of compounds (drug) are added at the time of addition of cells to the microtiter plate. The cultures are incubated for 6 days at 37° C. in a 5% CO2 atmosphere. At the conclusion of the incubation tritiated thymidine is added (for example, 1 µCi/well of 40 to 60 Ci/mmole) and proliferation determined by liquid scintillation counting.
# This example illustrates the effect of compounds nos. 1551 and 1559 as an immune modulator. […] 1551 and 1559 (see above for chemical names and structures).
# IL-12 signaling = assay: IL-12 dependent in vitro T-helper cell (Th1) differentiation assay; format: cell-based; settings: anti-CD3 stimulated splenic T cells, 5 U/ml IL-12, compound present during T cell activation
# Protocol: This example illustrates the assay used to determine the effect of compounds of this invention in suppressing Th1 differentiation in vitro by blocking IL-12 signaling. Compounds are tested in an IL-12 dependent in vitro T-helper cell differentiation assay as described in LeGross et al., J. Exp. Med., 172:921-929 (1990). Recombinant IL-12 is used to induce Th1 differentiation. Splenic T cells are purified utilizing the antibodies RA3-3A1/6.1 (anti-B220), J11d and MAR8.5 (anti-rat kappa chain) to deplete the B cells via complement mediated toxicity following the procedure set forth in Klaus et al., J. Immunol., 149:1867-1875 (1992). Splenic T cells are stimulated at 5×10^5/ml with insoluble anti-CD3 alone (145-2C11, Pharmingen, San Diego, Calif.), or anti-CD3 and 5 U/ml IL-12, with and without each inventive compound. After seven days, equal numbers of viable cells are restimulated for 24 hours with anti-CD3 without the inventive compounds, and the supernatants are collected and assayed for IFN-γ production. IFN-γ and IL-4 levels are measured by Intertest kits from Genzyme specific for IFN-γ and IL-4.
# Th1 differentiation is induced by culturing anti-CD3 stimulated T cells in the presence of exogenous IL-12. […] Neither the viability or recovery of T cells after one week of culture in the presence of the compound.
# human stromal cells = assay: PDGF-induced proliferation of human stromal cells; format: cell-based; settings: 50 ng/ml PDGF-BB, drug added one hour before, tritiated thymidine, FIG. 2
# Protocol: (§1) Another assay for measuring activity of the inventive compounds involves determining PDGF, FGF or VEGF proliferative response using either mouse NIH-3T3 (Balb) cells or human-derived stromal cells. Human stromal cells are plated (e g., about 2000 cells per well) in defined media (e.g., 69% McCoy's, 12.5% fetal calf serum, 12.5% horse serum, 1% antibiotics, 1% glutamine, 1% vitamin supplement, 0.8% essential amino acids, 1% sodium pyruvate, 1% sodium bicarbonate, 0.4% non-essential amino acids and 0.36% hydrocortisone). Two to three days later, the stromal cells are starved in serum-free media. Twenty four hours later, the cells are treated with a stimulating agent, such as PDGF-AA, PDGF-BB or basic FGF (fibroblast growth factor) with or without IL-1 or TNF, and tritiated thymidine. Cell proliferation is determined by liquid scintillation counting.
# This example illustrates a comparison of compounds nos. 1551 and 1559 on PDGF-induced (platelet derived growth factor) proliferation of human stromal cells. Human stromal cells were starved in serum-free media for 24 hours and then stimulated with 50 ng/ml of PDGF-BB. The drugs were added at various indicated concentrations one hour prior to PDGF stimulation. Tritiated thymidine was added at the time of PDGF stimulation. The cells were harvested and counted by liquid scintillation 24 hours after stimulation with PDGF. […]
# murine thymocytes = assay: murine thymocyte proliferation co-stimulated by ConA and IL-2; format: cell-based, Balb/C mice; settings: Mus musculus, ConA 0.25 mg/ml and IL-2 15 U/ml, drug added two hours before, 4 days
# Description: This example illustrates dose response curves used to generate 50% inhibition concentration (IC50) of inventive compounds nos. 1551 and 1564 for murine thymocyte proliferation, co-stimulated by Concanavalin A (ConA) and interleukin-2 alpha (IL-2). ConA, used to activate CD3, along with IL-2 co-stimulation, induces T-cell proliferation and differentiation. Thymuses, obtained from normal, female Balb/C mice, were dissociated and plated into 96-well plates at a density of 2×10^5 cells/well. ConA (0.25 mg/ml) and IL-2 (15 U/ml) were added to the wells. The cells were incubated for 4 days at 37° C. On day 4, the cells were pulsed with tritiated thymidine and incubated for an additional 4 hours. The amount of tritiated thymidine dye incorporated by the harvested cells was determined in a liquid scintillation counter. Drug doses (shown in FIGS. 7A and 7B) were added two hours prior to ConA and IL-2 activation. Background counts were less than 200 cpm. […] 1551 and 1564 are 28 and 49 μM.
# [2] = tested on: LD-2 cells, a human malignant melanoma cell line; assay: cytotoxicity on LD-2 cells (BCECF viability stain); format: cell-based; settings: various concentrations, FIG. 3
# Protocol: (§2) This example provide data from an experiment measuring compound no. 1559 cytotoxicity on LD-2 cells, a human malignant melanoma cell line. The cells were treated with various concentrations of compound no. 1559 and later stained for cell viability with a fluorescence stain (BCECF) and analyzed using a Milipore fluorescence plate reader.
# NIH-3T3 cells = assay: cytotoxicity on NIH-3T3 cells (BCECF viability stain); format: cell-based, mouse; settings: various concentrations, FIG. 4
# Protocol: as §2, with “provides” for “provide”, “NIH-3T3 cells and their Ras transformed counterpart, NIH-3T3 Ras cells.” for “LD-2 cells, a human malignant melanoma cell line.”
# NIH-3T3 Ras cells = assay: cytotoxicity on NIH-3T3 Ras cells (BCECF viability stain); format: cell-based, mouse; settings: various concentrations, FIG. 4
# Protocol: as §2, with “provides” for “provide”, “NIH-3T3 cells and their Ras transformed counterpart, NIH-3T3 Ras cells.” for “LD-2 cells, a human malignant melanoma cell line.”
# VCAM = assay: TNF-induced cell surface expression of VCAM in HUVEC, flow cytometry; format: cell-based, human; settings: for % of cells in gate (VCAM expression): 20 ng/ml TNF for 20 hours, 1559 at 0.25 mM one hour prior to TNF, TNF alone 34.5%, non-induced 0.4%
# Protocol: This example illustrates the effect of compound no. 1559 on inhibiting cell surface expression of VCAM in human umbilical vein endothelial cells (HUVEC). The HUVEC cells were stimulated with 20 ng/ml TNF- for 20 hours and then stained for immunofluorescence using a monoclonal antibody recognizing VCAM, followed by a goat anti-mouse antibody conjugated to phycoerythrin. The cells were analyzed for antibody binding using flow cytometry. […] The top left histogram is non-TNF induced expression of VCAM (% of cells in gate A is 0.4%). […] 1559 (0.25 mM), one hour prior to TNF addition (% of cells in gate C is 24%).
# This example illustrates the effect of compound no. 1559 on inhibiting cell surface expression of VCAM in HUVEC cells. The cells were stimulated with TNF- (20 ng/ml) for 20 hours and then stained for immunofluorescence using a monoclonal antibody recognizing VCAM, followed by a goat anti-mouse antibody conjugated to phycoerythrin. The cells were analyzed for antibody binding using flow cytometry. […] The mean fluorescence levels were decreased by compound no. 1559 treatment (1.7 fold decrease) when compared with control levels (TNF treatment, no drug).
# Balb/3T3 cells = assay: PDGF-BB-induced proliferation of Balb/3T3 cells; format: cell-based, mouse; settings: tritiated thymidine, FIGS. 8A and 9A
# Protocol: as §1
# Balb/3T3 cells respond vigorously to PDGF stimulation, and are useful in vitro models for further study of PDGF-induced proliferation. Disregulated PDGF-proliferative response has been linked to a variety of diseases, including, e.g., restenosis, atherosclerosis, fibrosis, and tumor cell angiogenesis. Cells were plated in low serum-containing medium for 24 hours prior to stimulation with various concentrations (as reported in FIGS. 8A and 9A) of inventive compounds nos.2556 and 3504 (FIGS. 8A and 9A, respectively). […]
structure (smiles),measurement,setting,value
"CC(O)CCCCCCn1c(=O)c2c(ncn2C)n(C)c1=O (centres unmarked) [Compound 1536, 1-(7-Hydroxyoctyl)-3,7-dimethylxanthine]",IC50,[1],250 µM
same,inhibition of Th1 differentiation enhanced by exogenous IL-12,IL-12 signaling,inhibited Th1 differentiation
"Cn1cnc2c1c(=O)n(CCCCCCC(O)CO)c(=O)n2C (centres unmarked) [Compound 1538, 1-(7,8-Dihydroxyoctyl)-3,7-dimethylxanthine]",IC50,[1],> 500 µM
"Cn1cnc2c1c(=O)n(CC(O)CO)c(=O)n2C (centres unmarked) [Compound 1540, 1-(2,3-Dihydroxypropyl)-3,7-dimethylxanthine]",IC50,[1],> 500 µM
"CC(O)CCCn1c(=O)c2c(ncn2C)n(C)c1=O (centres unmarked) [Compound 1542, 1-(4-Hydroxypentyl)-3,7-dimethylxanthine]",IC50,[1],> 500 µM
"Cn1cnc2c1c(=O)n(CCCCCCCO)c(=O)n2C [Compound 1545, 1-(7-Hydroxyheptyl)-3,7-dimethylxanthine]",IC50,[1],300 µM
"Cn1cnc2c1c(=O)n(CCCCCCCCO)c(=O)n2C [Compound 1546, 1-(8-Hydroxyoctyl)-3,7-dimethylxanthine]",IC50,[1],320 µM
"CC(O)CCCCCCCn1c(=O)c2c(ncn2C)n(C)c1=O (centres unmarked) [Compound 1551, 1-(8-Hydroxynonyl)-3,7-dimethylxanthine]",IC50,[1],120 µM
same,immune modulating activity compared with PTX,[1],more effective and more potent than PTX
same,inhibition of PDGF-induced stimulation (proliferation),human stromal cells,inhibited PDGF-induced stimulation
same,IC50,murine thymocytes,28 µM
"Cn1cnc2c1c(=O)n(CCCCCCO)c(=O)n2C [Compound 1556, 1-(6-Hydroxyhexyl)-3,7-dimethylxanthine]",IC50,[1],> 500 µM
"Cn1cnc2c1c(=O)n(CCCCCCCCCCO)c(=O)n2C [Compound 1559, 1-(10-Hydroxydecyl)-3,7-dimethylxanthine]",IC50,[1],150 µM
same,immune modulating activity compared with PTX,[1],more effective and more potent than PTX
same,inhibition of PDGF-induced stimulation (proliferation),human stromal cells,inhibited PDGF-induced stimulation
same,cytotoxicity,[2],cytotoxic at higher concentrations
same,cytotoxicity,NIH-3T3 cells,cytotoxic at higher concentrations
same,cytotoxicity,NIH-3T3 Ras cells,cytotoxic at higher concentrations
same,% of cells in gate (VCAM expression),VCAM,24%
same,"decrease of mean fluorescence levels (VCAM) compared with control (TNF treatment, no drug)","VCAM; TNF 20 ng/ml for 20 hours, FIG. 6",1.7 fold decrease
"Cn1cnc2c1c(=O)n(CCCCCCCC(O)CO)c(=O)n2C (centres unmarked) [Compound 1561, 1-(8,9-Dihydroxynonyl)-3,7-dimethylxanthine]",IC50,[1],185 µM
"Cn1cnc2c1c(=O)n(CCCCCCCCC(O)CO)c(=O)n2C (centres unmarked) [Compound 1564, 1-(9,10-Dihydroxydecyl)-3,7-dimethylxanthine]",IC50,[1],210 µM
same,IC50,murine thymocytes,49 µM
Cn1cnc2c1c(=O)n(CCCCCCCCCCCC(O)CO)c(=O)n2C (centres unmarked) [Compound 2556],inhibition of PDGF-induced proliferation,Balb/3T3 cells,inhibited PDGF-induced proliferation
"CC(O)CCCCCCCCCCCCn1c(=O)c2c(ncn2C)n(C)c1=O (centres unmarked) [Compound 3504, 1-(13-Hydroxytetradecyl)-3,7-dimethylxanthine]",inhibition of PDGF-induced proliferation,Balb/3T3 cells,inhibited PDGF-induced proliferation
"CC(=O)CCCCn1c(=O)c2c(ncn2C)n(C)c1=O [PTX, 1-(5-oxohexyl)-3,7-dimethylxanthine, reference compound]",% of cells in gate (VCAM expression),VCAM,36.8%
